# Experimental data taken from PubChem BioAssay (NCI).
#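 Tested at 5 concentrations; 48 h exposure; 96-well plates; endpoints linearly interpolated, else capped at highest concentration. Here, GI50 denotes the concentration required for 50% inhibition of growth. TGI is the concentration that stops growth completely.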
# Experiments:
# Assay in all cases: growth of human tumour cells (NCI), 48 h
# [1] = tested on: TK-10 renal
# [2] = tested on: SK-MEL-28 melanoma
# [3] = tested on: OVCAR-5 ovarian
# [4] = tested on: U251 CNS
# [5] = tested on: A498 renal
# [6] = tested on: SW-620 colon
# [7] = tested on: KM12 colon
# [8] = tested on: SNB-75 CNS
# [9] = tested on: MALME-3M melanoma
# [10] = tested on: 786-0 renal
# [11] = tested on: PC-3 prostate
# [12] = tested on: SK-MEL-5 melanoma
# [13] = tested on: UACC-62 melanoma
# [14] = tested on: SNB-19 CNS
# [15] = tested on: LOX IMVI melanoma
# [16] = tested on: EKVX NSCLC
# [17] = tested on: HCT-15 colon
# [18] = tested on: A549 NSCLC
# [19] = tested on: NCI/ADR-RES ovarian
# [20] = tested on: HS 578T breast
# [21] = tested on: M14 melanoma
# [22] = tested on: OVCAR-8 ovarian
# [23] = tested on: OVCAR-3 ovarian
# [24] = tested on: HOP-92 NSCLC
# [25] = tested on: ACHN renal
# [26] = tested on: SF-268 CNS
# [27] = tested on: T-47D breast
# [28] = tested on: COLO 205 colon
# [29] = tested on: UO-31 renal
# [30] = tested on: K-562 leukemia
# [31] = tested on: MCF7 breast
# [32] = tested on: SN12C renal
# [33] = tested on: SF-539 CNS
# [34] = tested on: HL-60(TB) leukemia
# [35] = tested on: SK-OV-3 ovarian
# [36] = tested on: SF-295 CNS
# [37] = tested on: SK-MEL-2 melanoma
# [38] = tested on: UACC-257 melanoma
# [39] = tested on: OVCAR-4 ovarian
# [40] = tested on: DU-145 prostate
# [41] = tested on: IGROV1 ovarian
# [42] = tested on: CAKI-1 renal
# [43] = tested on: NCI-H460 lung
# [44] = tested on: MDA-MB-468 breast
# [45] = tested on: RPMI-8226 leukemia
# [46] = tested on: BT-549 breast
# [47] = tested on: MDA-MB-231 breast
# [48] = tested on: HCT-116 colon
# [49] = tested on: HOP-62 NSCLC
# [50] = tested on: HT29 colon
# [51] = tested on: SR leukemia
# [52] = tested on: CCRF-CEM leukemia
# [53] = tested on: MDA-MB-435
# [54] = tested on: RXF 393 renal
# [55] = tested on: MOLT-4 leukemia
# [56] = tested on: NCI-H23 lung
# [57] = tested on: NCI-H522 lung
# [58] = tested on: HCC-2998 colon
# [59] = tested on: NCI-H226 lung
smiles,measurement,setting,value
COc1cc2c(c(OC)c1OC)C(=O)CC(c1cccc(NC(=O)c3cc(NC(=O)[C@H](C)N)ccc3Cl)c1)O2 (stereo partly drawn),GI50,[1],19.8 µM
same,TGI,[1],42.7 µM
same,GI50,[2],16.6 µM
same,TGI,[2],30.2 µM
same,GI50,[3],18.3 µM
same,TGI,[3],34.6 µM
same,GI50,[4],13.9 µM
same,TGI,[4],28 µM
same,GI50,[5],26 µM
same,TGI,[5],90.5 µM
same,GI50,[6],15.7 µM
same,TGI,[6],30.2 µM
same,GI50,[7],19.3 µM
same,TGI,[7],37.9 µM
same,GI50,[8],13.3 µM
same,TGI,[8],65.1 µM
same,GI50,[9],14.2 µM
same,TGI,[9],27.7 µM
same,GI50,[10],19.1 µM
same,TGI,[10],36.7 µM
same,GI50,[11],17.2 µM
same,TGI,[11],69.5 µM
same,GI50,[12],15.5 µM
same,TGI,[12],29.4 µM
same,GI50,[13],12.3 µM
same,TGI,[13],24.9 µM
same,GI50,[14],15.8 µM
same,TGI,[14],29.2 µM
same,GI50,[15],14.5 µM
same,TGI,[15],29.6 µM
same,GI50,[16],17.2 µM
same,TGI,[16],35 µM
same,GI50,[17],12 µM
same,TGI,[17],26.9 µM
same,GI50,[18],15.9 µM
same,TGI,[18],33.3 µM
same,GI50,[19],16.2 µM
same,TGI,[19],47 µM
same,GI50,[20],20 µM
same,TGI,[20],59.3 µM
same,GI50,[21],15.5 µM
same,TGI,[21],32.6 µM
same,GI50,[22],16.1 µM
same,TGI,[22],41.7 µM
same,GI50,[23],17.5 µM
same,TGI,[23],46.7 µM
same,GI50,[24],14.5 µM
same,TGI,[24],48.9 µM
same,GI50,[25],15.9 µM
same,TGI,[25],31 µM
same,GI50,[26],18 µM
same,TGI,[26],42.8 µM
same,GI50,[27],8.07 µM
same,TGI,[27],29 µM
same,GI50,[28],17.1 µM
same,TGI,[28],33.2 µM
same,GI50,[29],12 µM
same,TGI,[29],24.7 µM
same,GI50,[30],7.31 µM
same,TGI,[30],91.9 µM
same,GI50,[31],12.9 µM
same,TGI,[31],26.8 µM
same,GI50,[32],14.1 µM
same,TGI,[32],30.9 µM
same,GI50,[33],15.5 µM
same,TGI,[33],28.8 µM
same,GI50,[34],18.8 µM
same,TGI,[34],37.5 µM
same,GI50,[35],18.3 µM
same,TGI,[35],42.2 µM
same,GI50,[36],16.3 µM
same,TGI,[36],29.9 µM
same,GI50,[37],14.8 µM
same,TGI,[37],33.2 µM
same,GI50,[38],14.4 µM
same,TGI,[38],29.5 µM
same,GI50,[39],15.6 µM
same,TGI,[39],47 µM
same,GI50,[40],17.5 µM
same,TGI,[40],34.5 µM
same,GI50,[41],16.6 µM
same,TGI,[41],32.9 µM
same,GI50,[42],32.7 µM
same,TGI,[42],> 100 µM
same,GI50,[43],15.3 µM
same,TGI,[43],30.6 µM
same,GI50,[44],13.5 µM
same,TGI,[44],28.5 µM
same,GI50,[45],7.29 µM
same,TGI,[45],51.7 µM
same,GI50,[46],15 µM
same,TGI,[46],32 µM
same,GI50,[47],14.6 µM
same,TGI,[47],28.5 µM
same,GI50,[48],17.5 µM
same,TGI,[48],35.6 µM
same,GI50,[49],15.1 µM
same,TGI,[49],30.6 µM
same,GI50,[50],18.6 µM
same,TGI,[50],37.2 µM
same,GI50,[51],5.45 µM
same,TGI,[51],39.2 µM
same,GI50,[52],18.5 µM
same,TGI,[52],65 µM
same,GI50,[53],7.81 µM
same,TGI,[53],21.4 µM
same,GI50,[54],18.6 µM
same,TGI,[54],37.1 µM
same,GI50,[55],11 µM
same,TGI,[55],34.6 µM
same,GI50,[56],15.6 µM
same,TGI,[56],31.2 µM
same,GI50,[57],11.3 µM
same,TGI,[57],26 µM
same,GI50,[58],16.9 µM
same,TGI,[58],31.3 µM
same,GI50,[59],16.8 µM
same,TGI,[59],38.6 µM
